US8178552B2, “7-Azaindole derivatives and their use in the inhibition of c-Jun N-terminal kinase” (Eisai R&D Management Co., Ltd., priority 2008, dated 2012)
pIC50: −log10 of the molar value.

Tests used:
c-Jun phosphorylation = test: LPS-induced c-Jun phosphorylation in spleen of mice (HTRF); assay type: in vivo, male C57/B16 mice; conditions: Mus musculus, po; 20 mg/kg p.o. 30 min before LPS 10 mg/kg i.p.; 1 hour after LPS; versus vehicle-treated animals; read-out: Percentage reduction in the level of P-c-Jun in spleen
Method: (§1) The studies were carried out in male C57/B16 mice. Compounds (20 mg/kg; p.o.) were administered 30 minutes before injection of lipopolysaccharide (LPS). LPS was administered intraperitoneally at a dose of 10 mg/kg. Animals were sacrificed 1 hour following LPS injection. Blood was collected into heparinized tubes for measurement of plasma TNFα levels and spleens were collected for the measurement of c-Jun phosphorylation. Plasma TNFα was measured using an ELISA kit purchased from R&D systems. Spleens were homogenised, extracted in high salt (250 mM NaCl) lysis buffer with phosphatase inhibitors and c-Jun phosphorylation was measured using HTRF. The suppressive effect of compounds was calculated as the percentage reduction of the TNFα level in plasma and P-c-Jun level in spleen as compared with the vehicle-treated animals.

JNK3 = JNK3 (Homo sapiens, UniProt P53779); test: JNK3 SPA assay; assay type: biochemical; conditions: 3.33 μM ATP, GST-c-Jun substrate; read-out: IC50 against JNK3
JNK3, sequence (P53779 whole entry, species assumed): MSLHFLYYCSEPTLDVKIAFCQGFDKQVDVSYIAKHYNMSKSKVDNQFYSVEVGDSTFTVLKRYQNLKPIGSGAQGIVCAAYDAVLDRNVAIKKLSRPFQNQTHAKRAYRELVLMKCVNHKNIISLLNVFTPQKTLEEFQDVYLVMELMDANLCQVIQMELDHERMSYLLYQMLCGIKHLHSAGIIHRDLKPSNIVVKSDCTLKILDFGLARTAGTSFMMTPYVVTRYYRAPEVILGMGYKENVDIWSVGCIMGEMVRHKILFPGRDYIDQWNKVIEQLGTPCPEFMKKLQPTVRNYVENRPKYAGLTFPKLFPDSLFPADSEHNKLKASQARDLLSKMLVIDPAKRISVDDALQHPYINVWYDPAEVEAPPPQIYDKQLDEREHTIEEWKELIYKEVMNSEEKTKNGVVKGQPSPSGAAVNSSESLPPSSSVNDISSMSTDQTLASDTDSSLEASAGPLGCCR
Method in brief: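 Radiometric SPA using GST-c-Jun with [γ-33P]ATP in 25 mM HEPES pH 7.5 and 10 mM Mg acetate; the substrate solution held 3.33 µM ATP (JNK2/3) or 2 µM ATP (JNK1). Reactions ran 30 min at room temperature and were stopped with glutathione SPA beads plus 40 mM ATP. IC50 is the concentration halving c-Jun phosphorylation versus control.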

TNFα = test: LPS-induced TNFα suppression in mice (plasma TNFα, ELISA); assay type: in vivo, male C57/B16 mice; conditions: Mus musculus, po; 20 mg/kg p.o. 30 min before LPS 10 mg/kg i.p.; 1 hour after LPS; versus vehicle-treated animals; read-out: Percentage reduction in the level of TNFα in plasma
Method: as §1

**Q.** What does the source list for `Cn1cc(-c2c[nH]c3ncc(C4=CCCC5C4C5(C)C)cc23)cn1` (centres unmarked) [Compound I-141, 5-(7,7-dimethylbicyclo[4.1.0]hept-2-en-2-yl)-3-(1-methyl-1H-pyrazol-4-yl)-1H-pyrrolo[2,3-b]pyridine]?
**A.** inhibition in vivo at 20 mg/kg (c-Jun phosphorylation): 4%; pIC50 (JNK3): 6.54; inhibition in vivo at 20 mg/kg (TNFα): 43%

**Q.** For `Cn1cc(-c2c[nH]c3ncc([C@H]4CC[C@@H](N5CCOCC5)CC4)cc23)cn1` [Compound I-7, 4-((1s,4s)-4-(3-(1-methyl-1H-pyrazol-4-yl)-1H-pyrrolo[2,3-b]pyridin-5-yl)cyclohexyl)morpholine], which inhibition in vivo at 20 mg/kg (c-Jun phosphorylation) is on record?
**A.** 18%

**Q.** And the pIC50 (JNK3)?
**A.** 7.22

**Q.** And the inhibition in vivo at 20 mg/kg (TNFα)?
**A.** 63%

**Q.** What does the source list for `Cn1cc(-c2c[nH]c3ncc(C4=CCCC4)cc23)cn1` [Compound I-10, 5-cyclopentenyl-3-(1-methyl-1H-pyrazol-4-yl)-1H-pyrrolo[2,3-b]pyridine]?
**A.** inhibition in vivo at 20 mg/kg (c-Jun phosphorylation): 75%; pIC50 (JNK3): 7.77; inhibition in vivo at 20 mg/kg (TNFα): 62%

**Q.** Which results are given for `CN1CCN([C@H]2CC[C@@H](c3cnc4[nH]cc(-c5cnn(C)c5)c4c3)CC2)CC1` [Compound I-26, 3-(1-methyl-1H-pyrazol-4-yl)-5-((1s,4s)-4-(4-methylpiperazin-1-yl)cyclohexyl)-1H-pyrrolo[2,3-b]pyridine]?
**A.** inhibition in vivo at 20 mg/kg (c-Jun phosphorylation): 16%; pIC50 (JNK3): 7.03; inhibition in vivo at 20 mg/kg (TNFα): 71%

**Q.** How did the inhibition in vivo at 20 mg/kg (c-Jun phosphorylation) turn out when `Cn1cc(-c2c[nH]c3ncc(C4CCCCC4)cc23)cn1` [Compound I-16, 5-cyclohexyl-3-(1-methyl-1H-pyrazol-4-yl)-1H-pyrrolo[2,3-b]pyridine] was run?
**A.** 20%

**Q.** And the pIC50 (JNK3)?
**A.** 7.40

**Q.** What about the inhibition in vivo at 20 mg/kg (TNFα) of the same compound?
**A.** 45%

**Q.** `CC1CCC(c2cnc3[nH]cc(-c4cnn(C)c4)c3c2)CC1` (mixture of isomers) [Compound I-3, 3-(1-methyl-1H-pyrazol-4-yl)-5-(4-methylcyclohexyl)-1H-pyrrolo[2,3-b]pyridine] was tested. Which inhibition in vivo at 20 mg/kg (c-Jun phosphorylation) did it give?
**A.** 0%

**Q.** What about the pIC50 (JNK3) of the same compound?
**A.** 7.24

**Q.** And the inhibition in vivo at 20 mg/kg (TNFα)?
**A.** 60%

**Q.** Which results are given for `CN1CCN([C@H]2CC[C@H](c3cnc4[nH]cc(-c5cnn(C)c5)c4c3)CC2)CC1` [Compound I-25, 3-(1-methyl-1H-pyrazol-4-yl)-5-((1r,4r)-4-(4-methylpiperazin-1-yl)cyclohexyl)-1H-pyrrolo[2,3-b]pyridine]?
**A.** inhibition in vivo at 20 mg/kg (c-Jun phosphorylation): 25%; pIC50 (JNK3): 7.05; inhibition in vivo at 20 mg/kg (TNFα): 80%

**Q.** What does the source list for `Cn1cc(-c2c[nH]c3ncc(C4CC5CCC4C5)cc23)cn1` (centres unmarked) [Compound I-137, 5-(bicyclo[2.2.1]heptan-2-yl)-3-(1-methyl-1H-pyrazol-4-yl)-1H-pyrrolo[2,3-b]pyridine]?
**A.** inhibition in vivo at 20 mg/kg (c-Jun phosphorylation): 15%; pIC50 (JNK3): 7.35; inhibition in vivo at 20 mg/kg (TNFα): 45%

**Q.** With `Cn1cc(-c2c[nH]c3ncc([C@H]4CC[C@@H](N5CCCC5)CC4)cc23)cn1` [Compound I-23, 3-(1-methyl-1H-pyrazol-4-yl)-5-((1s,4s)-4-(pyrrolidin-1-yl)cyclohexyl)-1H-pyrrolo[2,3-b]pyridine] as the compound, how does the inhibition in vivo at 20 mg/kg (c-Jun phosphorylation) read?
**A.** 2%

**Q.** What about the pIC50 (JNK3) of the same compound?
**A.** 6.90

**Q.** And the inhibition in vivo at 20 mg/kg (TNFα)?
**A.** 61%

**Q.** How did the inhibition in vivo at 20 mg/kg (c-Jun phosphorylation) turn out when `Cn1cc(-c2c[nH]c3ncc(C4C5CC6CC(C5)CC4C6)cc23)cn1` (centres unmarked) [Compound I-154, 3-(1-Methyl-1H-pyrazol-4-yl)-5-tricyclo[3.3.1.1˜3,7˜]dec-2-yl-1H-pyrrolo[2,3-b]pyridine] was run?
**A.** 33%

**Q.** And the pIC50 (JNK3)?
**A.** 7.21

**Q.** What about the inhibition in vivo at 20 mg/kg (TNFα) of the same compound?
**A.** 60%

**Q.** With `CC(C)N1CCN([C@H]2CC[C@@H](c3cnc4[nH]cc(-c5cnn(C)c5)c4c3)CC2)CC1` [Compound I-44, 5-((1s,4s)-4-(4-isopropylpiperazin-1-yl)cyclohexyl)-3-(1-methyl-1H-pyrazol-4-yl)-1H-pyrrolo[2,3-b]pyridine] as the compound, how does the inhibition in vivo at 20 mg/kg (c-Jun phosphorylation) read?
**A.** 17%

**Q.** And the pIC50 (JNK3)?
**A.** 6.89

**Q.** And the inhibition in vivo at 20 mg/kg (TNFα)?
**A.** 58%

**Q.** For `Cn1cc(-c2c[nH]c3ncc([C@H]4CC[C@H](N(C)C)CC4)cc23)cn1` [Compound I-71, (1r,4r)-N,N-dimethyl-4-(3-(1-methyl-1H-pyrazol-4-yl)-1H-pyrrolo[2,3-b]pyridin-5-yl)cyclohexanamine], which inhibition in vivo at 20 mg/kg (c-Jun phosphorylation) is on record?
**A.** 7%

**Q.** And the pIC50 (JNK3)?
**A.** 6.72

**Q.** What about the inhibition in vivo at 20 mg/kg (TNFα) of the same compound?
**A.** 86%

**Q.** What does the source list for `Cn1cc(-c2c[nH]c3ncc(C4CCC5(CC4)OCCO5)cc23)cn1` [Compound I-19, 5-(1,4-Dioxa-spiro[4.5]dec-8-yl)-3-(1-methyl-1H-pyrazol-4-yl)-1H-pyrrolo[2,3-b]pyridine]?
**A.** inhibition in vivo at 20 mg/kg (c-Jun phosphorylation): 32%; pIC50 (JNK3): 7.60; inhibition in vivo at 20 mg/kg (TNFα): 9%

**Q.** Which results are given for `Cn1cc(-c2c[nH]c3ncc([C@H]4CC[C@@H](N(C)C)CC4)cc23)cn1` [Compound I-72, (1s,4s)-N,N-dimethyl-4-(3-(1-methyl-1H-pyrazol-4-yl)-1H-pyrrolo[2,3-b]pyridin-5-yl)cyclohexanamine]?
**A.** inhibition in vivo at 20 mg/kg (c-Jun phosphorylation): 15%; pIC50 (JNK3): 6.59; inhibition in vivo at 20 mg/kg (TNFα): 84%

**Q.** `CO[C@]1(c2cnc3[nH]cc(-c4cnn(C)c4)c3c2)CC[C@H](N2CCOCC2)CC1` [Compound I-163, 4-((1s,4s)-4-methoxy-4-(3-(1-methyl-1H-pyrazol-4-yl)-1H-pyrrolo[2,3-b]pyridin-5-yl)cyclohexyl)morpholine] was tested. Which pIC50 (JNK3) did it give?
**A.** 5.83

**Q.** With `C[C@H]1COCCN1[C@H]1CC[C@@H](c2cnc3[nH]cc(-c4cnn(C)c4)c3c2)CC1` [Compound I-104, (S)-3-methyl-4-((1s,4R)-4-(3-(1-methyl-1H-pyrazol-4-yl)-1H-pyrrolo[2,3-b]pyridin-5-yl)cyclohexyl)morpholine] as the compound, how does the pIC50 (JNK3) read?
**A.** 6.86

**Q.** `CCNC1CCC(c2cnc3[nH]cc(-c4cnn(C)c4)c3c2)CC1` (centres unmarked) [Compound I-55, Ethyl-{4-[3-(1-methyl-1H-pyrazol-4-yl)-1H-pyrrolo[2,3-b]pyridin-5-yl]-cyclohexyl}-amine] was tested. Which pIC50 (JNK3) did it give?
**A.** 6.58

**Q.** With `Cn1cc(-c2c[nH]c3ncc(C4=CCC(N5CCOCC5)CC4)cc23)cn1` (centres unmarked) [Compound I-75, 3-(1-Methyl-1H-pyrazol-4-yl)-5-(4-morpholin-4-yl-cyclohex-1-enyl)-1H-pyrrolo[2,3-b]pyridine] as the compound, how does the pIC50 (JNK3) read?
**A.** 7.05

**Q.** `COCCN(C)[C@H]1CC[C@H](c2cnc3[nH]cc(-c4cnn(C)c4)c3c2)CC1` [Compound I-117, (1r,4r)-N-(2-methoxyethyl)-N-methyl-4-(3-(1-methyl-1H-pyrazol-4-yl)-1H-pyrrolo[2,3-b]pyridin-5-yl)cyclohexanamine] was tested. Which pIC50 (JNK3) did it give?
**A.** 6.54

**Q.** How did the pIC50 (JNK3) turn out when `Cn1cc(-c2c[nH]c3ncc([C@H]4CC[C@@H](N5CC[C@@H](F)C5)CC4)cc23)cn1` [Compound I-53, 5-((1S,4s)-4-((R)-3-fluoropyrrolidin-1-yl)cyclohexyl)-3-(1-methyl-1H-pyrazol-4-yl)-1H-pyrrolo[2,3-b]pyridine] was run?
**A.** 6.74

**Q.** `Cn1cc(-c2c[nH]c3ncc(C4CCC(C)(C)CC4)cc23)cn1` [Compound I-18, 5-(4,4-dimethylcyclohexyl)-3-(1-methyl-1H-pyrazol-4-yl)-1H-pyrrolo[2,3-b]pyridine] was tested. Which pIC50 (JNK3) did it give?
**A.** 6.54

**Q.** With `CCCN(C)[C@H]1CC[C@@H](c2cnc3[nH]cc(-c4cnn(C)c4)c3c2)CC1` [Compound I-116, (1s,4s)-N-methyl-4-(3-(1-methyl-1H-pyrazol-4-yl)-1H-pyrrolo[2,3-b]pyridin-5-yl)-N-propylcyclohexanamine] as the compound, how does the pIC50 (JNK3) read?
**A.** 6.51

**Q.** How did the pIC50 (JNK3) turn out when `CN(C)C1CCC(c2cnc3[nH]cc(-c4cnn(CCN5CCOCC5)c4)c3c2)CC1` (mixture of isomers) [Compound I-56, N,N-dimethyl-4-(3-(1-(2-morpholinoethyl)-1H-pyrazol-4-yl)-1H-pyrrolo[2,3-b]pyridin-5-yl)cyclohexanamine] was run?
**A.** 7.15

**Q.** `Cn1cc(-c2c[nH]c3ncc([C@H]4CC[C@@H](C(=O)O)CC4)cc23)cn1` [Compound I-77, (1s,4s)-4-(3-(1-methyl-1H-pyrazol-4-yl)-1H-pyrrolo[2,3-b]pyridin-5-yl)cyclohexanecarboxylic acid] was tested. Which pIC50 (JNK3) did it give?
**A.** < 6.30

**Q.** With `CCCN(CCOC)[C@H]1CC[C@@H](c2cnc3[nH]cc(-c4cnn(C)c4)c3c2)CC1` [Compound I-122, (1s,4s)-N-(2-methoxyethyl)-4-(3-(1-methyl-1H-pyrazol-4-yl)-1H-pyrrolo[2,3-b]pyridin-5-yl)-N-propylcyclohexanamine] as the compound, how does the pIC50 (JNK3) read?
**A.** 6.53

**Q.** With `CCN(CCOC)[C@H]1CC[C@H](c2cnc3[nH]cc(-c4cnn(C)c4)c3c2)CC1` [Compound I-123, (1r,4r)-N-ethyl-N-(2-methoxyethyl)-4-(3-(1-methyl-1H-pyrazol-4-yl)-1H-pyrrolo[2,3-b]pyridin-5-yl)cyclohexanamine] as the compound, how does the pIC50 (JNK3) read?
**A.** 6.49

**Q.** How did the pIC50 (JNK3) turn out when `Cn1cc(-c2c[nH]c3ncc([C@]4(F)CC[C@@H](N5CCOCC5)CC4)cc23)cn1` [Compound I-162, 4-((1s,4s)-4-fluoro-4-(3-(1-methyl-1H-pyrazol-4-yl)-1H-pyrrolo[2,3-b]pyridin-5-yl)cyclohexyl)morpholine] was run?
**A.** < 5.70

**Q.** How did the pIC50 (JNK3) turn out when `CC(C)N[C@H]1CC[C@H](c2cnc3[nH]cc(-c4cnn(C)c4)c3c2)CC1` [Compound I-105, (1r,4r)-N-isopropyl-4-(3-(1-methyl-1H-pyrazol-4-yl)-1H-pyrrolo[2,3-b]pyridin-5-yl)cyclohexanamine] was run?
**A.** 6.49
